The text below walks through data of PMC10258805, “Nonpeptidic Oxazole-Based Prolyl Oligopeptidase Ligands with Disease-Modifying Effects on α-Synuclein Mouse Models of Parkinson’s Disease” (Journal of Medicinal Chemistry, 2023).

Test [1] has as its system pPP2Ac and PP2Ac in HEK-293 cells. The test can be described thus: PP2A marker assay (Western blot). In kind it is cell-based, human. Conditions: HEK-293, 10 μM. (A western blot detects proteins with antibodies after separation by electrophoresis.)
For test [2], the system named is LC3BII in HEK-293 cells. The test can be described thus: Autophagy marker LC3BII assay (Western blot). In kind it is cell-based, human. The following applies: HEK-293, 10 μM.
The subject of test [3] is LC3BII in mouse brain. As to the kind of experiment: LC3BII in mouse brain (Western blot). The format is in vivo. The following applies: 10 mg/kg i.p., 45 min after injection.
In test [4] the target is T1, Recombinant human DPP2 (Homo sapiens, UniProt Q9UHL4).
T1 construct: purchased R&D Systems 3438-SE-010
The test can be described thus: Close-relative enzyme specificity assay, DPP2. In kind it is biochemical. Conditions: 1 or 10 μM. The procedure:
DPP2: Recombinant human DPP2 was purchased from R&D Systems (#3438-SE-010).
DPP2: Lys-Ala-pNA was used as the substrate at a concentration of 1 mM at pH 5.5 (100 mM NaAc, 10 mM EDTA, 14 μg/mL aprotinin). […] The substrate was added, and the velocities of pNA release were measured kinetically at 405 nm for at least 10 min at 37 °C. Measurements were done on the Infinite 200 as above.

The test system of test [5] is pPP2Ac and PP2Ac in mouse brain. The test can be described thus: PP2A markers in mouse brain (Western blot). Conditions: 10 mg/kg i.p., 45 min after injection. The format is in vivo.
Test [6] has as its system αSyn dimerization in HEK-293 PREP-KO cells. As to the kind of experiment: αSyn-dimerization assay in PREP-KO cells. The format is cell-based, human.
For test [7], the system named is oligomeric αSyn in AAV-αSyn-injected mice. As to the kind of experiment: Oligomer-specific αSyn immunoreactivity (OD) in AAV-αSyn PD mouse model. The following applies: 10 mg/kg/day minipump, 4 weeks.
Test [8] has as its target T2, DPP4 (Homo sapiens, UniProt P27487).
T2 construct: DPPIV was purified from human seminal plasma; from tissue; host or cells: human seminal plasma
The test can be described thus: Close-relative enzyme specificity assay, DPP4. In kind it is biochemical. The following applies: 1 or 10 μM. The procedure:
DPP4: DPPIV was purified from human seminal plasma, as described previously.
DPP4 and DPP9: Ala-Pro-para-nitroanilide (pNA) was used as the substrate at the respective concentrations of 25 μM (DPP4) or 150 μM (DPP9) at pH 7.4 (0.05 M HEPES–NaOH buffer with 0.1% Tween-20, 0.1 mg/mL BSA, and 150 mM NaCl). […] Measurements were done on the Infinite 200 as above.

Test [9] has as its system oligomeric αSyn in A30P*A53T transgenic mice. As to the kind of experiment: Oligomeric αSyn in A30P*A53T transgenic mice. The following applies: TG mice, 10 mg/kg i.p. every 12 h for 7 days, vs vehicle. The format is in vivo, mouse.
In test [10] the target is T3, human FAP (Homo sapiens, UniProt Q12884).
T3 construct: the human secretion signal was replaced with the HoneyBee melittin secretion signal; HoneyBee melittin secretion signal (N); His tag from the C-terminal BaculoDirect vector (inferred from Ni-chelating purification; the vector also adds V5, own knowledge) (C); made in house; host or cells: Sf9 insect cells
T3 sequence (Q12884 26-760 limits assumed): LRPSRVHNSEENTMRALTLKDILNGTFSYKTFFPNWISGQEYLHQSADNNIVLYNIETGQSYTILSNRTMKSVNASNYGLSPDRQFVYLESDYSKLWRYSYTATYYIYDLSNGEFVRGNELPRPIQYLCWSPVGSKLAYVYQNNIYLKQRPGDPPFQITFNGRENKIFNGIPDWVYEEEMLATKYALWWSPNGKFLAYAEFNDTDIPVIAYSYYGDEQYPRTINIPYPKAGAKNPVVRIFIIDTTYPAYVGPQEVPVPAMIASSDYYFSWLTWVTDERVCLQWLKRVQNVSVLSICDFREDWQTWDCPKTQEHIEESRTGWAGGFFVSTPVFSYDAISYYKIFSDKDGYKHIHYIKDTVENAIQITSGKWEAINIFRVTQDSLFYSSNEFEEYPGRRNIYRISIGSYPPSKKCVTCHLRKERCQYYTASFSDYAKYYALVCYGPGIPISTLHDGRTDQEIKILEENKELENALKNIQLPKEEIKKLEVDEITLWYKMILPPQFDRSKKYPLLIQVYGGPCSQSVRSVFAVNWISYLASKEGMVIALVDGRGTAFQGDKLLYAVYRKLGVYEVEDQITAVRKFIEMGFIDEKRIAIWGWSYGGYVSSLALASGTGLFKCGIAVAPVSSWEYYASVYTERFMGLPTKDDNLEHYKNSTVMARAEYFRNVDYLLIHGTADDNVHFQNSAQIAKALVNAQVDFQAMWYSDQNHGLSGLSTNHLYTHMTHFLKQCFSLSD
The test can be described thus: Close-relative enzyme specificity assay, FAP. The format is biochemical. Conditions: 1 or 10 μM. An excerpt: FAP: A gateway-entry clone for human FAP was purchased from Dharmacon (Accession number DQ891423), and the human secretion signal was replaced with the HoneyBee melittin secretion signal. For transfection and expression of FAP in Sf9 insect cells, the C-terminal BaculoDirect kit from LifeTechnologies was used. The enzyme was purified from the supernatant of the insect cells using immobilized Ni-chelating chromatography (GE Healthcare, Diegem, Belgium), followed by anion-exchange chromatography using a 1 mL HiTrap Q and size exclusion chromatography using the Superdex 200 column (GE Healthcare, Diegem, Belgium).
Measurements were done on the Infinite 200 as above.

Entries after “also recorded” stand apart in the source; their conditions may differ.

T2 sequence (P27487 whole entry): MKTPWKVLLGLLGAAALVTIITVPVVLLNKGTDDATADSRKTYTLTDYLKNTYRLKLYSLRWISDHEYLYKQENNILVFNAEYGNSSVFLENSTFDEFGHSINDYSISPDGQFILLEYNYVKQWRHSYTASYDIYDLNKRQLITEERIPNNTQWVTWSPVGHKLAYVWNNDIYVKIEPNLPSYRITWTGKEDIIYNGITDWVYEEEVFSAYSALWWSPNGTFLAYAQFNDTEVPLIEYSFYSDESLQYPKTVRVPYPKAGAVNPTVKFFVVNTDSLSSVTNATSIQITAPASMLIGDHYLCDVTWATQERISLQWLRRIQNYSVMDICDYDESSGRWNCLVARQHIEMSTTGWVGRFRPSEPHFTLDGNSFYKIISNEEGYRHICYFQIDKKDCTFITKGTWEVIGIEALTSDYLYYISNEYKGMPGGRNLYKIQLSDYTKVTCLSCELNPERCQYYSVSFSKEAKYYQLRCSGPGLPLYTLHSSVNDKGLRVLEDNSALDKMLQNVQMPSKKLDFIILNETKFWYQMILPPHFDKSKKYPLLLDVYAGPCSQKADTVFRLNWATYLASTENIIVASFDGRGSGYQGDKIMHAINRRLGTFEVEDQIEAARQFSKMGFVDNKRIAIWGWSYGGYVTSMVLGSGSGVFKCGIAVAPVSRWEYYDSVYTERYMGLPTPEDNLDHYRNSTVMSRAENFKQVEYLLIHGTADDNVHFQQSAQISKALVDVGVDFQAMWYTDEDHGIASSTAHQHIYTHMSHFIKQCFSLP

As to `Cc1nc(CCCc2ccccc2)oc1N1CCC[C@H]1C#N` [HUP-55, (S)-1-(4-Methyl-2-(3-phenylpropyl)oxazol-5-yl)pyrrolidine-2-carbonitrile], in test [1] (4 h), the “pPP2Ac levels (in words)” value was “significant decrease in pPP2Ac levels” and the “total PP2Ac levels (in words)” value is listed as “elevated total PP2Ac levels”. In addition, the “PP2Ac levels (in words)” value in test [1] (24 h) is “significantly elevated”. Further, the “LC3BII levels (in words)” value in test [2] (4 h) is “significant increase in LC3BII levels”. In [2] (24 h), the “LC3BII levels (in words)” value is listed as “significantly elevated LC3BII levels”. Moreover, the “levels of LC3BII in mouse brain (in words)” value in [3] is on record as “significantly elevated”. In addition, the “inhibition of DPP2” value in test [4] is recorded as “no inhibition; also recorded: does not inhibit”. In addition, in test [5], the “inactive pPP2Ac levels in mouse brain (in words)” value was “decreased inactive pPP2Ac levels, but this was not significant” and the “levels of PP2Ac in mouse brain (in words)” value is listed as “significantly increased the levels of PP2Ac”. Moreover, in [6], the “effect on αSyn dimerization” value was “no effect on αSyn dimerization”. In addition, in test [7] (vs vehicle-treated group), the “OD of oligomeric αSyn in the SNpc (in words)” value is given as “did not significantly reduce”. Besides, in test [7] (vs vehicle-treated mice), the “OD of oligomer-specific αSyn in the STR (in words)” value is given as “decreased the OD of oligomer-specific αSyn”. For the same compound, the “inhibition of DPP4” value in test [8] was “no inhibition; also recorded: does not inhibit”. The “decrease of oligomeric αSyn in the SNpc” value in test [9] (nonsignificant) worked out at 38%. In test [9] (not statistically significant), the “decrease of oligomeric αSyn in the STR” value was determined as 47%. The “inhibition of FAP” value in test [10] is on record as “no inhibition; also recorded: does not inhibit”.
